# In article PMC9917560, “Design, Synthesis and Antimicrobial Evaluation of New N-(1-Hydroxy-1,3-dihydrobenzo[c][1,2]oxaborol-6-yl)(hetero)aryl-2-carboxamides as Potential Inhibitors of Mycobacterial Leucyl-tRNA Synthetase” (International Journal of Molecular Sciences, 2023):
# Where two headings read alike, the source gives them in different places.
# Key:
# [1] = tested on: Aspergillus fumigatus ATCC 204305; experiment: Antifungal microdilution broth (EUCAST); type: cell-based; details: Aspergillus fumigatus, read-out: MIC Aspergillus fumigatus
# [2] = tested on: Aspergillus flavus CCM 8363; experiment: Antifungal microdilution broth (EUCAST); type: cell-based; details: Aspergillus flavus, read-out: MIC Aspergillus flavus
# [3] = tested on: methicillin-resistant Staphylococcus aureus subsp. aureus (MRSA) CCM 4750 (ATCC 43300); experiment: microbe, parasite or virus in culture; type: cell-based; details: read-out: MIC Methicillin-resistant Staphylococcus aureus subsp. aureus
# [4] = tested on: Escherichia coli CCM 3954 (ATCC 25922); experiment: Antibacterial microdilution broth (EUCAST); type: cell-based; details: Escherichia coli, read-out: MIC Escherichia coli
# [5] = tested on: Pseudomonas aeruginosa CCM 3955 (ATCC 27853); experiment: Antibacterial microdilution broth (EUCAST); type: cell-based; details: read-out: MIC Pseudomonas aeruginosa
# [6] = tested on: Candida parapsilosis CCM 8260 (ATCC 22019); experiment: Antifungal microdilution broth (EUCAST); type: cell-based; details: Lodderomyces parapsilosis, read-out: MIC Candida parapsilosis
# [7] = tested on: Enterococcus faecalis CCM 4224 (ATCC 29212); experiment: Antibacterial microdilution broth (EUCAST); type: cell-based; details: read-out: MIC Enterococcus faecalis
# HepG2 cell line = experiment: Cytotoxicity screening, CellTiter 96 assay; details: Homo sapiens, HepG2, 24 h, read-out: IC50 HepG2
# [8] = tested on: Staphylococcus epidermidis CCM 4418 (ATCC 12228); experiment: Antibacterial microdilution broth (EUCAST); type: cell-based; details: read-out: MIC Staphylococcus epidermidis
# [9] = tested on: Candida albicans CCM 8320 (ATCC 24433); experiment: Antifungal microdilution broth (EUCAST); type: cell-based; details: Candida albicans, read-out: MIC Candida albicans
# [10] = tested on: Mycobacterium tuberculosis H37Rv CNCTC My 331/88 (ATCC 27294); experiment: Microplate Alamar Blue assay vs Mtb H37Rv; type: cell-based; details: Mycobacterium tuberculosis, pH 6.6, MABA, Middlebrook 7H9 pH 6.6, recalculated from µg/mL; read-out: MIC Mtb H37Rv
# [11] = tested on: Acinetobacter baumannii DSM 30007 (ATCC 19606); experiment: Antibacterial microdilution broth (EUCAST); type: cell-based; details: read-out: MIC Acinetobacter baumannii
# [12] = tested on: Mycolicibacterium smegmatis DSM 43,465 (ATCC 607); experiment: Antimycobacterial microdilution (resazurin) vs M. smegmatis; type: cell-based; details: Middlebrook 7H9, resazurin, read-out: MIC M. smeg.
# [13] = tested on: Staphylococcus aureus subsp. aureus CCM 4223 (ATCC 29213); experiment: Antibacterial microdilution broth (EUCAST); type: cell-based; details: read-out: MIC Staphylococcus aureus subsp. aureus
# [14] = tested on: Candida krusei CCM 8271 (ATCC 6258); experiment: Antifungal microdilution broth (EUCAST); type: cell-based; details: Pichia kudriavzevii, read-out: MIC Candida krusei
# [15] = tested on: Klebsiella pneumoniae CCM 4415 (ATCC 10031); experiment: Antibacterial microdilution broth (EUCAST); type: cell-based; details: Klebsiella pneumoniae, read-out: MIC Klebsiella pneumoniae
# [16] = tested on: Mycobacterium tuberculosis H37Ra ITM-M006710 (ATCC 9431); experiment: Antimycobacterial microdilution (resazurin) vs Mtb H37Ra; type: cell-based; details: Middlebrook 7H9, resazurin, recalculated from µg/mL, read-out: MIC Mtb H37Ra
# [17] = tested on: Mycobacterium avium DSM 44,156 (ATCC 25291); experiment: Antimycobacterial microdilution (resazurin) vs M. avium; type: cell-based; details: Middlebrook 7H9, resazurin, read-out: MIC M. avium
# [18] = tested on: Trichophyton interdigitale CCM 8377 (ATCC 9533); experiment: Antifungal microdilution broth (EUCAST); type: cell-based; details: Trichophyton interdigitale, read-out: MIC Trichophyton interdigitale
# [19] = tested on: Mycolicibacterium aurum DSM 43,999 (ATCC 23366); experiment: Antimycobacterial microdilution (resazurin) vs M. aurum; type: cell-based; details: Middlebrook 7H9, resazurin, read-out: MIC M. aurum
# [20] = tested on: Lichtheimia corymbifera CCM 8077; experiment: Antifungal microdilution broth (EUCAST); type: cell-based; details: Lichtheimia corymbifera, read-out: MIC Lichtheimia corymbifera
# [21] = tested on: Mycobacterium kansasii DSM 44,162 (ATCC 12478); experiment: Antimycobacterial microdilution (resazurin) vs M. kansasii; type: cell-based; details: read-out: MIC M. kansasii
# [22] = tested on: Candida tropicalis CCM 8264 (ATCC 750); experiment: Antifungal microdilution broth (EUCAST); type: cell-based; details: read-out: MIC Candida tropicalis
smiles,measurement,setting,value
"O=C(Nc1ccc2c(c1)B(O)OC2)c1ccc(Cl)cc1 [Compound 14, 4-chloro-N-(1-hydroxy-1,3-dihydrobenzo[c][1,2]oxaborol-6-yl)benzamide]",MIC,"[1]; ATCC204305, 24h incubation",> 125 µM
same,MIC,"[1]; ATCC204305, 48h incubation",> 125 µM
same,MIC,"[2]; CCM8363, 24h incubation",> 125 µM
same,MIC,"[2]; CCM8363, 48h incubation",> 125 µM
same,MIC,[3]; 24 h,> 500 µM
same,MIC,[3]; 48 h,> 500 µM
same,MIC,[4]; 24h incubation,> 500 µM
same,MIC,[4]; 48h incubation,> 500 µM
same,MIC,[5]; 24h incubation,> 500 µM
same,MIC,[5]; 48h incubation,> 500 µM
same,MIC,[6]; 24h incubation,> 125 µM
same,MIC,[6]; 48h incubation,> 125 µM
same,MIC,[7]; 24h incubation,> 500 µM
same,MIC,[7]; 48h incubation,> 500 µM
same,IC50,HepG2 cell line,> 1000 µM
same,melting point,,225.5 to 228.1 °C
same,MIC,[8]; 24h incubation,> 500 µM
same,MIC,[8]; 48h incubation,> 500 µM
same,MIC,[9]; 24h incubation,> 125 µM
same,MIC,[9]; 48h incubation,> 125 µM
same,MIC,[10],43.5 µM
same,MIC,[11]; 24h incubation,> 500 µM
same,MIC,[11]; 48h incubation,> 500 µM
same,MIC,[12],217 µM
same,MIC,[13]; 24h incubation,> 500 µM
same,MIC,[13]; 48h incubation,> 500 µM
same,MIC,[14]; 24h incubation,> 125 µM
same,MIC,[14]; 48h incubation,> 125 µM
same,MIC,[15]; 24h incubation,> 500 µM
same,MIC,[15]; 48h incubation,> 500 µM
same,MIC,[16],435 µM
same,MIC,[17]; Mycobacterium avium,435 µM
same,MIC,[18]; 72h incubation,> 125 µM
same,MIC,[18]; 120h incubation,> 125 µM
same,MIC,[19],13.6 µM
same,MIC,"[20]; CCM8077, 24h incubation",> 125 µM
same,MIC,"[20]; CCM8077, 48h incubation",> 125 µM
same,MIC,"[21]; Middlebrook 7H9, resazurin",217 µM
same,MIC,[22]; 24h incubation,> 125 µM
same,MIC,[22]; 48h incubation,> 125 µM
"O=C(Nc1ccc2c(c1)B(O)OC2)c1ccc2ccccc2n1 [Compound 19, N-(1-hydroxy-1,3-dihydrobenzo[c][1,2]oxaborol-6-yl)quinoline-2-carboxamide]",MIC,"[1]; ATCC204305, 24 h",> 125 µM
same,MIC,"[1]; ATCC204305, 48 h",> 125 µM
same,MIC,"[2]; CCM8363, 24 h",> 125 µM
same,MIC,"[2]; CCM8363, 48 h",> 125 µM
same,MIC,[3]; 24 h,> 125 µM
same,MIC,[3]; 48 h,> 125 µM
same,MIC,[4]; 24 h,> 125 µM
same,MIC,[4]; 48 h,> 125 µM
same,MIC,[5]; 24 h,> 125 µM
same,MIC,[5]; 48 h,> 125 µM
same,MIC,[6]; 24 h,> 125 µM
same,MIC,[6]; 48 h,> 125 µM
same,MIC,[7]; 24 h,> 125 µM
same,MIC,[7]; 48 h,> 125 µM
same,IC50,HepG2 cell line,467 µM
same,melting point,,201 to 203.1 °C
same,MIC,[8]; 24 h,> 125 µM
same,MIC,[8]; 48 h,> 125 µM
same,MIC,[9]; 24 h,> 125 µM
same,MIC,[9]; 48 h,> 125 µM
same,MIC,[10],82.2 µM
same,MIC,[11]; 24 h,> 125 µM
same,MIC,[11]; 48 h,> 125 µM
same,MIC,[12],25.7 µM
same,MIC,[13]; 24 h,125 µM
same,MIC,[13]; 48 h,125 µM
same,MIC,[14]; 24 h,> 125 µM
same,MIC,[14]; 48 h,> 125 µM
same,MIC,[15]; 24 h,> 125 µM
same,MIC,[15]; 48 h,> 125 µM
same,MIC,[16],206 µM
same,MIC,[17],25.68 µM
same,MIC,[17]; Mycobacterium avium,25.6 µM
same,MIC,[18]; 72 h,> 125 µM
same,MIC,[18]; 120 h,> 125 µM
same,MIC,[19],25.7 µM
same,MIC,"[20]; CCM8077, 24 h",> 125 µM
same,MIC,"[20]; CCM8077, 48 h",> 125 µM
same,MIC,[21],206 µM
same,MIC,[22]; 24 h,> 125 µM
same,MIC,[22]; 48 h,> 125 µM
